Results on 7 molecules are retold here after patent US10654794B2, “Fused tricyclic Γ-amino acid derivative, preparation method therefor, and medical use thereof” (SICHUAN HAISO PHARMACEUTICAL CO., LTD., priority 2016, dated 2020).

As a reminder, the half-life is how long it takes for the measured level to halve. In general, bioavailability refers to dose-corrected exposure relative to a reference, in per cent. The term Cmax denotes the highest concentration seen after dosing.

Molecules are shown by their SMILES. Read-outs that look alike come from different tables or passages of the source.

The nature of series [1]: Pharmacokinetic evaluation in rats. It is filed as in vivo, Male SD rats. The note with it: rat; for AUC(0-inf) / half-life / bioavailability / Cmax: male, SD, plasma; for AUC(0-inf): read-out: Area under curve AUC0-inf; for half-life: read-out: Half-life t½ (converted); for bioavailability / Bioavailability F: Oral 10 mg/kg vs I.V. 5 mg/kg; for bioavailability: read-out: Bioavailability F; for Cmax: read-out: Blood Drug Level Cmax. The procedure:
Pharmacokinetic Evaluation
Male SD rats (purchased from Vital River Laboratory Animal Technology Co., Ltd.), each weighing 180 to 240 g, were fasted overnight but allowed access to water. Three rats were administered by oral gavage at a dose of 10 mg/kg, and three rats were intravenously injected at 5 mg/kg. For the oral administration group, the compounds were formulated into 1.0 mg/mL suspensions with a 0.5% methylcellulose (MC) solution, and 200 μl blood was sampled before administration and 30 min, 1 h, 2 h, 4 h, 6 h, 8 h, 12 h and 24 h after administration. For the intravenous injection (I.V.) group, the compounds were formulated into 1.0 mg/ml solutions with physiological saline, and blood was sampled before administration and 5 min, 15 min, 30 min, 1 h, 2 h, 4 h, 8 h, 12 h and 24 h after administration. The blood samples were all anticoagulated with heparin, and centrifuged at 5500 rpm for 10 min to collect plasma, which was stored at −20° C. 10 μl plasma of rats for each of the time points was mixed with a 500 μl acetonitrile solution containing an internal standard, vortexed for 10 min, and centrifuged at 3700 rpm for 18 min. 50 μl of the supernatant was mixed with 100 μl water and vortexed for 10 min. 5 μl of the mixture was subjected to an LC-MS/MS analysis to determine the blood drug level of the parent drugs. The main pharmacokinetic parameters were analyzed using the software WinNonlin 6.3 at the non-compartment mode.

The test system of series [2] is pain in diabetic peripheral neuropathy. The conditions noted are these: patients with diabetic peripheral neuropathy; cited from earlier work.

Turning to `NC[C@@]1(CC(=O)O)[C@@H]2C[C@@H]3CC[C@H]1[C@H]2C3` (racemic) [Example 1, (±)-2-((1R,2R,3S,6R,8R)-2-(aminomethyl)tricyclo[4.2.1.0^3,8]nonan-2-yl)acetic acid], in series [1] (iv, 5 mg/kg, I.V., 5 mg/kg), the AUC(0-inf) came to 6800 ng·h/mL and the half-life was 1.3 h. The bioavailability in series [1] (po, 10 mg/kg) is 95%. Moreover, in series [1] (po, 10 mg/kg, Oral, 10 mg/kg), the AUC(0-inf) was 12900 ng·h/mL, the Cmax stood at 3000 ng/mL and the half-life was 2.3 h.

For the molecule `NC[C@@]1(CC(=O)O)[C@@H]2C[C@@H]3CC[C@H]1[C@H]2C3` (racemic) [Example 2, (±)-2-((1R,2R,3S,6R,8R)-2-(aminomethyl)tricyclo[4.2.1.0^3,8]nonan-2-yl)acetic acid benzenesulfonic acid (1:1)], in series [1] (I.V., 5 mg/kg), the “Area under curve AUC0-inf” value is 8147 ng·h/mL and the “Half-life t½” value is reported as 1.40 h. The “Bioavailability F” value in series [1] is given as 83.0%. Besides, in series [1] (Oral, 10 mg/kg), the “Area under curve AUC0-inf” value is 13473 ng·h/mL, the “Blood Drug Level Cmax” value is 3789 ng/mL and the “Half-life t½” value is listed as 1.40 h.

As for `NC[C@@]1(CC(=O)O)C2CC[C@H]3C[C@@H]2[C@@H]1C3` (single isomer, unassigned) [Example 5], in series [1] (iv, 5 mg/kg, I.V., 5 mg/kg), the AUC(0-inf) came to 8210 ng·h/mL and the half-life was 2.4 h. The bioavailability in series [1] (po, 10 mg/kg) amounted to 87%. In addition, in series [1] (po, 10 mg/kg, Oral, 10 mg/kg), the AUC(0-inf) amounted to 14200 ng·h/mL, the Cmax is 4490 ng/mL and the half-life is 1.6 h.

As for `NCC1(CC(=O)O)C2CCC3CC2C1C3` (stereo not shown) [Example 6], in series [1] (iv, 5 mg/kg, I.V., 5 mg/kg), the AUC(0-inf) came out at 8210 ng·h/mL and the half-life was 2.4 h. Further, the bioavailability in series [1] (po, 10 mg/kg) was determined as 83.2%. In series [1] (po, 10 mg/kg, Oral, 10 mg/kg), the AUC(0-inf) is 13700 ng·h/mL, the Cmax was 3710 ng/mL and the half-life was 1.4 h.

Turning to `NC[C@@]1(CC(=O)O)[C@@H]2C[C@H]3C[C@@H]2[C@@H]1C3` [Example 7, 2-(4-(aminomethyl)tricyclo[3.2.1.0^3,6]octan-4-yl)acetic acid], in series [1] (iv, 5 mg/kg, I.V., 5 mg/kg), the AUC(0-inf) is 11800 ng·h/mL and the half-life was 1.2 h. Further, the bioavailability in series [1] (po, 10 mg/kg) amounted to 97%. In addition, in series [1] (po, 10 mg/kg, Oral, 10 mg/kg), the AUC(0-inf) came out at 23000 ng·h/mL, the Cmax stood at 9140 ng/mL and the half-life is 1.1 h.

Consider `NC[C@@]1(CC(=O)O)[C@@H]2C[C@H]3C[C@@H]2[C@@H]1C3` [Example 8, 2-(4-(aminomethyl)tricyclo[3.2.1.0^3,6]octan-4-yl)acetic acid benzenesulfonic acid (1:1)], for which, in series [1] (I.V., 5 mg/kg), the “Area under curve AUC0-inf” value amounted to 11788 ng·h/mL and the “Half-life t½” value was found to be 1.20 h. In series [1], the “Bioavailability F” value came to 107.9%. In addition, in series [1] (Oral, 10 mg/kg), the “Area under curve AUC0-inf” value was found to be 25443 ng·h/mL, the “Blood Drug Level Cmax” value came out at 8004 ng/mL and the “Half-life t½” value stood at 2.10 h.

Consider `NCC1(CC(=O)O)CCCCC1` [gabapentin], for which, in series [2], the “proportion of patients whose pain is relieved to a great extent” value is recorded as “approximately 60%”.
